Experimental data published in ChEMBL document CHEMBL3885881, “DrugMatrix”.

Species: Rattus norvegicus
Assay: DrugMatrix - Regimen: Daily Repeat
Type: toxicity, organism-based, Sprague-Dawley
Design: regimen Daily Repeat, gender Male, age 6-8 weeks
Settings: in vivo, po, route oral GAVAGE, vehicle 100 % SALINE; for ABSOLUTE BASOPHIL / ABSOLUTE EOSINOPHIL / ABSOLUTE LYMPHOCYTE / ABSOLUTE MONOCYTE / ABSOLUTE SEGMENTED NEUTROPHIL / BASOPHIL / EOSINOPHIL / ERYTHROCYTE COUNT / HEMATOCRIT / HEMOGLOBIN / LEUKOCYTE COUNT / LYMPHOCYTE / MEAN CORPUSCULAR HEMOGLOBIN / MEAN CORPUSCULAR HEMOGLOBIN CONCENTRATION / MEAN CORPUSCULAR VOLUME / MONOCYTE / NEUTROPHIL / NUCLEATED RED BLOOD CELLS / PLATELET COUNT: tissue Blood; for ALANINE AMINOTRANSFERASE / ALBUMIN / ALKALINE PHOSPHATASE / ASPARTATE AMINOTRANSFERASE / BLOOD UREA NITROGEN / CARBON DIOXIDE / CHLORIDE / CHOLESTEROL / CREATINE PHOSPHOKINASE / CREATININE / GLUCOSE / LACTATE DEHYDROGENASE / LIPASE / PHOSPHORUS / POTASSIUM / SODIUM / TOTAL BILIRUBIN / TOTAL PROTEIN / URIC ACID: tissue Plasma
[1] = 10 mg/kg, […], dose level Low, time 7 day
[2] = 30 mg/kg, 72 h, dose level High, time 3 day
[3] = 30 mg/kg, […], dose level High, time 7 day

O=[As][O-].[Na+] [SODIUM ARSENITE]
ABSOLUTE BASOPHIL [1]: 0 CELLS/uL
ABSOLUTE EOSINOPHIL [1]: 0 CELLS/uL
ABSOLUTE LYMPHOCYTE [1]: 8882.33 CELLS/uL
ABSOLUTE MONOCYTE [1]: 292.83 CELLS/uL
ABSOLUTE SEGMENTED NEUTROPHIL [1]: 1158.17 CELLS/uL
BASOPHIL [1]: 0%
EOSINOPHIL [1]: 0%
ERYTHROCYTE COUNT [1]: 5.16 x10E6/uL
HEMATOCRIT [1]: 33.38%
HEMOGLOBIN [1]: 13.23 G/DL
LEUKOCYTE COUNT [1]: 10.33 x10E3/uL
LYMPHOCYTE [1]: 86.17%
MEAN CORPUSCULAR HEMOGLOBIN [1]: 25.68 pg
MEAN CORPUSCULAR HEMOGLOBIN CONCENTRATION [1]: 39.65 G/DL
MEAN CORPUSCULAR VOLUME [1]: 64.67 fL
MONOCYTE [1]: 2.83%
NEUTROPHIL [1]: 11%
NUCLEATED RED BLOOD CELLS [1]: 0 /100WBC
PLATELET COUNT [1]: 1191.67 x10E3/uL
ALANINE AMINOTRANSFERASE [1]: 43 u/L
ALBUMIN [1]: 4.45 G/DL
ALKALINE PHOSPHATASE [1]: 255.83 u/L
ASPARTATE AMINOTRANSFERASE [1]: 72.83 u/L
BLOOD UREA NITROGEN [1]: 13 mg/dL
CARBON DIOXIDE [1]: 29.83 mmol/L
CHLORIDE [1]: 98.83 MEQ/L
CHOLESTEROL [1]: 69.17 mg/dL
CREATINE PHOSPHOKINASE [1]: 248.67 u/L
CREATININE [1]: 0.18 mg/dL
GLUCOSE [1]: 139.17 mg/dL
LACTATE DEHYDROGENASE [1]: 91.83 u/L
LIPASE [1]: 10.5 u/L
PHOSPHORUS [1]: 11.75 mg/dL
POTASSIUM [1]: 6.25 MEQ/L
SODIUM [1]: 143.22 MEQ/L
TOTAL BILIRUBIN [1]: 0.15 mg/dL
TOTAL PROTEIN [1]: 5.95 G/DL
URIC ACID [1]: 0.93 mg/dL
ABSOLUTE BASOPHIL [2]: 0 CELLS/uL
ABSOLUTE EOSINOPHIL [2]: 24.17 CELLS/uL
ABSOLUTE LYMPHOCYTE [2]: 11880.83 CELLS/uL
ABSOLUTE MONOCYTE [2]: 220.67 CELLS/uL
ABSOLUTE SEGMENTED NEUTROPHIL [2]: 724.33 CELLS/uL
BASOPHIL [2]: 0%
EOSINOPHIL [2]: 0.17%
ERYTHROCYTE COUNT [2]: 5.56 x10E6/uL
HEMATOCRIT [2]: 36.35%
HEMOGLOBIN [2]: 12.9 G/DL
LEUKOCYTE COUNT [2]: 12.85 x10E3/uL
LYMPHOCYTE [2]: 92.17%
MEAN CORPUSCULAR HEMOGLOBIN [2]: 23.27 pg
MEAN CORPUSCULAR HEMOGLOBIN CONCENTRATION [2]: 35.48 G/DL
MEAN CORPUSCULAR VOLUME [2]: 65.6 fL
MONOCYTE [2]: 1.83%
NEUTROPHIL [2]: 5.83%
NUCLEATED RED BLOOD CELLS [2]: 0 /100WBC
PLATELET COUNT [2]: 1116 x10E3/uL
ALANINE AMINOTRANSFERASE [2]: 34.67 u/L
ALBUMIN [2]: 3.6 G/DL
ALKALINE PHOSPHATASE [2]: 172.83 u/L
ASPARTATE AMINOTRANSFERASE [2]: 76.5 u/L
BLOOD UREA NITROGEN [2]: 11.33 mg/dL
CARBON DIOXIDE [2]: 26.83 mmol/L
CHLORIDE [2]: 102.5 MEQ/L
CHOLESTEROL [2]: 75 mg/dL
CREATINE PHOSPHOKINASE [2]: 194.17 u/L
CREATININE [2]: 0.16 mg/dL
GLUCOSE [2]: 125.67 mg/dL
LACTATE DEHYDROGENASE [2]: 103.33 u/L
LIPASE [2]: 11.83 u/L
PHOSPHORUS [2]: 9.52 mg/dL
POTASSIUM [2]: 5.42 MEQ/L
SODIUM [2]: 143 MEQ/L
TOTAL BILIRUBIN [2]: 0.18 mg/dL
TOTAL PROTEIN [2]: 5.17 G/DL
URIC ACID [2]: 0.68 mg/dL
ABSOLUTE BASOPHIL [3]: 0 CELLS/uL
ABSOLUTE EOSINOPHIL [3]: 81.83 CELLS/uL
ABSOLUTE LYMPHOCYTE [3]: 12174.33 CELLS/uL
ABSOLUTE MONOCYTE [3]: 445.83 CELLS/uL
ABSOLUTE SEGMENTED NEUTROPHIL [3]: 2681.33 CELLS/uL
BASOPHIL [3]: 0%
EOSINOPHIL [3]: 0.5%
ERYTHROCYTE COUNT [3]: 5.27 x10E6/uL
HEMATOCRIT [3]: 32.5%
HEMOGLOBIN [3]: 12.83 G/DL
LEUKOCYTE COUNT [3]: 15.38 x10E3/uL
LYMPHOCYTE [3]: 81%
MEAN CORPUSCULAR HEMOGLOBIN [3]: 24.38 pg
MEAN CORPUSCULAR HEMOGLOBIN CONCENTRATION [3]: 39.47 G/DL
MEAN CORPUSCULAR VOLUME [3]: 61.75 fL
MONOCYTE [3]: 2.67%
NEUTROPHIL [3]: 15.83%
NUCLEATED RED BLOOD CELLS [3]: 0 /100WBC
PLATELET COUNT [3]: 966.33 x10E3/uL
ALANINE AMINOTRANSFERASE [3]: 39.67 u/L
ALBUMIN [3]: 4.02 G/DL
ALKALINE PHOSPHATASE [3]: 141.83 u/L
ASPARTATE AMINOTRANSFERASE [3]: 90 u/L
BLOOD UREA NITROGEN [3]: 16 mg/dL
CARBON DIOXIDE [3]: 27 mmol/L
CHLORIDE [3]: 100.17 MEQ/L
CHOLESTEROL [3]: 65.83 mg/dL
CREATINE PHOSPHOKINASE [3]: 152.83 u/L
CREATININE [3]: 0.14 mg/dL
GLUCOSE [3]: 126.83 mg/dL
LACTATE DEHYDROGENASE [3]: 98.33 u/L
LIPASE [3]: 9.83 u/L
PHOSPHORUS [3]: 9.15 mg/dL
POTASSIUM [3]: 5.46 MEQ/L
SODIUM [3]: 142.78 MEQ/L
TOTAL BILIRUBIN [3]: 0.13 mg/dL
TOTAL PROTEIN [3]: 5.38 G/DL
URIC ACID [3]: 0.55 mg/dL
